Consider two compounds from US7928128B2, “Use of(R)-(−) -2-[5-(4-fluorophenyl)-3-pyridylmethylaminomethyl]-chromane and its physiologically acceptable salts” (Merck Patent Gesellschaft mit beschrankter Haftung, priority 2000, dated 2011).

One assay relates to MSA patients. Kind of assay: Study in MSA patients (UPDRS). It is filed as in vivo, human. Particulars: add on, 2.5 to 20 mg b.i.d., versus placebo, cross-over. The procedure:
A typical study to investigate the efficacy of the compounds according to the invention in MSA patients encompasses 30 patients of either sex with a symptom duration of at least 5 years and a significant reduction of central dopamine receptors in positron emission tomography (PET) scan. The study design is similar to that described above for Parkinson's disease. […] Before the start of titration and at the end of the treatment period a complete UPDRS assessment is performed in each patient (primary outcome measure). After a 2-week wash-out period the two study arms are crossed over and the protocol is repeated.

Assay [1] deals with patients with idiopathic Parkinson's disease. Kind of assay: Double-blind study in idiopathic Parkinson's disease (UPDRS). It is filed as in vivo, human. Particulars: add on, 2.5 to 10 mg b.i.d., versus placebo. From the text: A typical study to investigate the efficacy of the compounds according to the invention in the treatment of idiopathic Parkinson's disease is described in the following. 180 patients of either sex with idiopathic Parkinson's disease participate in a double-blind study. The main inclusion criteria are Hoehn & Yahr stage ≧2.0 (Hoehn H. M. et al, Neurology 1967; 17: 427-442), aged 50-80 years, symptom duration of at least 5 years. […] The dose of blinded medication is titrated over a period of 4 weeks in a range from 2.5 to 10 mg b.i.d. Then the medication is kept constant for 1 week. Before the start of titration, at the end of the treatment period and 2 weeks after the end of the tiration period an assessment is performed in each patients using the unified Parkinson's disease rating scale (UPDRS part I to V according to S. Fahn et al., in: Recent developments in Parkinson's disease, vol. 2, MacMillan health information 1987, 153-163). […] Furthermore, the efficacy to treat tremor is shown by the means of the UPDRS.

In assay [2] the test system is patients with Huntington's disease. The experiment in a line: Trial in patients with Huntington's disease. It is filed as in vivo, human. Particulars: add on, 2.5 to 20 mg b.i.d., versus placebo. The procedure: A typical trial to establish the effect of the compounds according to the invention on chorea, voluntary motor performance, and functional disability in patients with Huntington's disease encompasses 32 genetically diagnosed patients. […] The dose of blinded medication is titrated over a period of 3 weeks in a range from 2.5 to 20 mg b.i.d. Then the medication is held constant for 1 week. Assessments are performed in the week before and at the last day of the trial. Chorea is scored using the abnormal involuntary movement scale (AIMS, W. Guy, in: ECDEU assessment manual. Rockville Md.: US dept. of health, education and welfare, 1976: 534-537), the unified Huntington's disease rating scale (UHDRS, Huntington study group, 1996, Movement Disord, 11: 136-42), and judgement of video recordings. Voluntary motor performance is assessed using the UHDRS motor scale. Patients and their partners complete a questionnaire regarding functional disability.

Assay [3] deals with patients with advanced idiopathic Parkinson's disease complicated by "peak-dose" dyskinesia. Kind of assay: Double-blind cross-over study, advanced idiopathic Parkinson's disease with peak-dose dyskinesia. It is filed as in vivo, human. Particulars: add on, 2.5 to 10 mg b.i.d., versus placebo; first hour in the on state. From the text:
A typical study to investigate the efficacy of the compounds according to the invention for adverse effects in Parkinson's disease is described in the following. 40 patients of either sex with advanced idiopathic Parkinson's disease complicated by “peak-dose” dyskinesia participate in a double-blind, cross-over study. The main inclusion criteria are Hoehn & Yahr stage ≧2.5 (lit.: Hoehn H. M. et al, Neurology 1967; 17: 427-442), aged 40-75 years, symptom duration of at least 5 years, and a I-dopa treatment duration of at least 3 years. […] The dose of blinded medication is titrated over a period of 3 weeks in a range from 2.5 to 10 mg b.i.d. Then the medication is kept constant for 1 week. Before the start of titration and at the end of the treatment period a I-dopa challenge is performed according to […] et al. (Movement Disord, 1999, 14 (Suppl. 1), 54-59) using video recording. The main outcome measure of the protocol is the mean score for dyskinesia during the first hour in the “on” state after I-dopa challenge. Therefore, the investigator assesses every minute the severity of dyskinesia (0=absent, 4=severe disabling involuntary movements) from 0 to 4 in seven parts of the body (upper and lower limbs, face, trunk, neck). After a 2-week wash-out period the two study arms are crossed over and the protocol is repeated.

Assay [4] deals with patients with cervical dystonia (spasmodic torticollis). The experiment in a line: Double-blind placebo-controlled study in cervical dystonia (TWSTRS). It is filed as in vivo, human. Particulars: 2.5 mg to 20 mg b.i.d.
Assay [5] concerns schizophrenic inpatients on long-term stable antipsychotic treatment. The experiment in a line: Tardive dyskinesia study in schizophrenic inpatients (AIMS). Particulars: add on to antipsychotic treatment, 2.5 to 20 mg b.i.d., versus placebo period. It is filed as in vivo, human. The procedure:
dyskinesia is a common adverse effect of long-term treatment with neuroleptics. A typical study to investigate the efficacy of the compounds according to the invention in tardive dyskinesia is described in the following. 32 schizophrenic (DSM-III-R) inpatients aged 25-60 years on long-term stable antipsychotic treatment (duration of at least 5 years) entered the study. […] The dose of blinded medication is titrated over a period of 3 weeks in a range from 2.5 to 20 mg b.i.d. Then the medication is maintained under double-blind conditions for 2 weeks. After a 2-week wash-out period, the test drugs are crossed over. Assessments of tardive dyskinesia by means of the Abnormal Involuntary Movement Scale (AIMS, see above) and of Parkinsonian extrapyramidal side effects (UPDRS, see above) are made pretreatment and posttreatment.

The subject of another assay is Parkinson patients. Particulars: literature reports; cited from earlier work.

With `Cl.Fc1ccc(-c2cncc(CNC[C@H]3CCc4ccccc4O3)c2)cc1` [(R)-(−)-2-[5-(4-fluorophenyl)-3-pyridylmethylaminomethyl]-chromane hydrochloride], the UPDRS entry with MSA patients was “significant clinical improvement”. The UPDRS scores result in assay [1] is recorded as “significant clinical improvement”. In assay [2] (AIMS, UHDRS, video recordings), the “involuntary motor performance (chorea)” value was “significant improvement”. The voluntary motor performance result in assay [2] (UHDRS motor scale) is “significant improvement”. For the same compound, the “mean dyskinesia scores after I-dopa challenge” value in assay [3] was “significant clinical improvement”. In addition, the TWSTRS scores entry in assay [4] was “significant improvement”. In addition, the AIMS scores result in assay [5] is on record as “significantly lower than during placebo period”.
For the compound `O=C1CC2(CCCC2)CC(=O)N1CCCCN1CCN(c2ncccn2)CC1` [buspirone], the “anti-dyskinetic effect in Parkinson patients” value in the assay with Parkinson patients is “moderate anti-dyskinetic properties”.
